Source: patent US6469065B1, “Nitrosated and nitrosylated α-adrenergic receptor antagonist, compositions and methods of use” (NitroMed, Inc., priority 1996, dated 2002)

Assays:
anesthetized rabbit [1] = assay: In Vivo Comparative Erectile Responses—I: intracavernosal pressure after intracavernosal injection; parameters: species or system Male New Zealand white rabbits
Method: (§1) Male New Zealand white rabbits weighing 2.5 kg were used as the animal model. Animals were first relaxed with an i.m. injection of 25 mg/kg ketamine prior to anesthesia with a bolus i.v. injection of 10 mg/kg Profol and maintained with i.v. infusion at 0.5 mg/kg/minutes. Ventilation of the animals was performed with 1% halothane plus 0.8 L/min O2 and 1 L/min N2O. A 22 gauge angiocatheter was placed in the femoral artery for measurement of systemic blood pressure. A dorsal incision was made in the penis and the corpora cavemosum exposed and cannulated with a 21 gauge butterfly needle to measure intracavernosal pressure.
(§2) Drugs at various concentrations were delivered intracavernosally at a volume of 150 μl through a 25 gauge needle. A 150 μl solution of a mixture of papaverine ([…]), phentolamine ([…]) and prostaglandin El (10 μg/ml) (pap/phent/PGE1) was injected in the corpora as a standard solution for comparison with the response of yohimbine, Example 1, Example 2, and the combination of yohimbine and Example 1. This pap/phent/PGE1 mixture is considered to cause a maximal erection-inducing effect.

anesthetized rabbit [2] = assay: In Vivo Comparative Erectile Responses—I: systemic blood pressure after intracavernosal injection; parameters: species or system Male New Zealand white rabbits; conditions: 500 μg, FIG. 5A
Method: as §1, §2

anesthetized rabbit [3] = assay: In vivo Comparative Erectile Responses—II: intracavernosal blood pressure (ICP) and duration; parameters: species or system White New Zealand male rabbits
Method: White New Zealand male rabbits (2.6-3.0 kg) were anesthetized with pentobarbital sodium (30 mg/kg). The femoral artery was exposed and indwelled with PE 50 tubing connected to a transducer for recording systemic arterial blood pressure. The ventral aspect of the penis was then exposed via surgical cut and intracavernosal blood pressure was measured using a 23 gauge needle inserted to the corpus cavernosum. The contralateral corpus cavemosum was implanted with a 23 gauge needle for the administration of drugs.
Following all surgical procedures, rabbits were allowed to rest for 10 minutes during which intracavernosal blood pressure (ICP) and mean arterial blood pressure (MABP) were continuously recorded.
Drugs at various concentrations were prepared as aqueous solution (injection volume of 200 μL). Following drug injection the tubing was flushed with 100 μL distilled water. All drug treatments were administered after stable intracavernosal and systemic blood pressures were established. If an increase in intracavernosal blood pressure (ICP) was observed, the effect was monitored throughout its entire duration.
The following parameters were obtained from each experimental recording: (i) Maximum ICP (mm Hg), (ii) Duration (minutes), defined as the time in minutes, that the increase in ICP is greater than the 50% difference between baseline and maximum response. Data were analyzed using ANOVA statistical analysis (p<0.05).

Compound: 2-Acyl-17α(3-methyl-3-(nitrosothio)butanoxy)yohimban-16α-carboxylic Acid methyl ester hydrochloride Salt [Example 2]
- duration of the erectile response (anesthetized rabbit [1]; 500 μg and 1 mg, FIG. 4): longer duration of action compared to yohimbine
- percent peak erectile response relative to pap/phent/PGE1 (anesthetized rabbit [1]; 500 μg dose): equipotent to the standard dose of pap/phent/PGE1
- percent peak erectile response relative to pap/phent/PGE1 (anesthetized rabbit [1]; 1 mg dose): at least equal to or more efficacious than the standard dose of the pap/phent/PGE1 mixture
- effect on systemic blood pressure (anesthetized rabbit [2]): did not produce any effect on systemic blood pressure

Compound: 4-[2-(Dimethylamino)ethoxy]-2-methyl-5-(methylethyl)phenyl 2-({N-[2-methyl-2-(nitrosothio)propyl]carbamoyl}methoxy)acetate, Fumaric Acid Salt [Example 9]
- doses needed to produce a robust increase of ICP (anesthetized rabbit [3]; 0.2-1.6 mg tested, FIG. 8 to FIG. 11): lower than the doses of Example 10
- duration of the erectile response (anesthetized rabbit [3]; 0.2-1.6 mg tested, FIG. 9): somewhat shorter than that of Example 10

Compound: N[C@@H](CCC(=O)N[C@@H](CSN=O)C(=O)NCC(=O)O)C(=O)O [Example 1, 4-(N-{(1R)-1-[N-(carboxymethyl)carbamoyl]-2-(nitrosothio)ethyl}carbamoyl)(2S)-2-aminobutanoic Acid]
- percent peak erectile response relative to pap/phent/PGE1 (anesthetized rabbit [1]; 500 μg dose): near maximal response
- duration of the erectile response (anesthetized rabbit [1]; 500 μg, FIG. 2): much longer duration of action

Compound: Cc1cc(OCCN(C)C)c(C(C)C)cc1OC(=O)CC(C)(C)SN=O.Cl [Example 6, 4-[2-(Dimethylamino)ethoxy]-2-methyl-5-(methylethyl)phenyl 3-methyl-3-(nitrosothio)butanoate Hydrochloride]
- percent peak erectile response relative to pap/phent/PGE1 (anesthetized rabbit [1]; 1 mg dose): more efficacious than 1 mg moxisylyte
- duration of the erectile response (anesthetized rabbit [1]; 1 mg, FIG. 7): longer duration of erectile response compared to 1 mg moxisylyte
- duration of the erectile response (anesthetized rabbit [1]; 2 mg, FIG. 7): much longer duration of action compared to 2 mg moxisylyte

Compound: Cc1cc(OCCN(C)C)c(C(C)C)cc1OC(=O)CCC(=O)OCCC1(SN=O)C2CC3CC(C2)CC1C3.O=C(O)/C=C/C(=O)O (centres unmarked) [Example 10, 4-[2-(dimethylamino)ethoxy]-2-methyl-5-(methylethyl)phenyl 2-[2-(nitrosothio)adamantan-2-yl]ethyl butane-1,4-dioate, Fumaric Acid Salt]
- peak erectile response, increase of ICP (magnitude) (anesthetized rabbit [3]; 1.07 mg, FIG. 10): moderate
- duration of the erectile response (anesthetized rabbit [3]; 1.07 mg, FIG. 11): short-lasting
- duration of increase in intracavernosal pressure (anesthetized rabbit [3]; 2.13 mg): robust effect
- magnitude of increase in intracavernosal pressure (anesthetized rabbit [3]; 2.13 mg): robust effect
- duration of increase in intracavernosal pressure (anesthetized rabbit [3]; 4.26 mg): robust effect
- duration of the erectile response (anesthetized rabbit [3]; 4.26 mg): exceeded 120 minutes
- magnitude of increase in intracavernosal pressure (anesthetized rabbit [3]; 4.26 mg): robust effect

Compound: COC(=O)[C@@H]1[C@H]2C[C@H]3c4[nH]c5ccccc5c4CCN3C[C@@H]2CC[C@@H]1O [yohimbine, reference compound]
- percent peak erectile response relative to pap/phent/PGE1 (anesthetized rabbit [1]; 150 μg and 500 μg, FIG. 1): dose dependently induced erectile response
- duration of the erectile response (anesthetized rabbit [1]; submaximal (150 μg) and maximal (500 μg) efficacy doses, FIG. 2): very short duration of action
